Read-outs that look alike come from different tables or passages of the source.
Experiments:
Bcl-XL = Bcl-XL (Homo sapiens, UniProt Q07817); experiment: TR FRET competitive binding affinity, Bcl-XL; conditions: read-out: Target Affinity TR FRET, Bcl-XL
Description: (§1) A comparison of the binding affinity for each of the compounds was performed to determine target affinity, as measured by Time-Resolved Fluorescence Resonance Energy Transfer (TR FRET).

Mcl-1 = Mcl-1 (Homo sapiens, UniProt Q07820); experiment: TR FRET competitive binding affinity, Mcl-1; conditions: read-out: Target Affinity TR FRET, Mcl-1
Sequence of Mcl-1 (Q07820 whole entry): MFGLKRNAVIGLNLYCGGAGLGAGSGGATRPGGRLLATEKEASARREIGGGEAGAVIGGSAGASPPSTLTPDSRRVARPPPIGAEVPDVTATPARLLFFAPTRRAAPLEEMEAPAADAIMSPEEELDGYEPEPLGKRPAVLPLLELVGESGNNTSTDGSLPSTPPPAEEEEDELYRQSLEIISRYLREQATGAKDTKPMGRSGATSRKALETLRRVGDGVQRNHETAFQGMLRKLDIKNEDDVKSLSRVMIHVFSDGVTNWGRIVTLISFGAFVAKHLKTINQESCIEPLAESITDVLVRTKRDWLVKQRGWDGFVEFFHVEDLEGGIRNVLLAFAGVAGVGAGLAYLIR
Description: as §1

[1] = system: peripheral blood immune cells; experiment: Peripheral blood lymphocytes in C57BL/6 mice, Cell Dyn hematology analyzer; assay type: in vivo; conditions: for inhibition in vivo at 100 mg/kg: Mus musculus, Lymphocyte
Description: The effect of the Bcl-2 selective/Bcl-XL sparing compounds on peripheral blood immune cells was also evaluated in C57BL/6 mice. Mice were treated four days with individual compounds (100 mg/kg, orally every day) and cell numbers were measured with a Cell Dyn hematology analyzer.

Bcl-w = biological target: T1, Bcl-w (Homo sapiens, UniProt Q92843); experiment: TR FRET competitive binding affinity, Bcl-w; conditions: read-out: Target Affinity TR FRET, Bcl-w
T1 sequence (Q92843 1-193): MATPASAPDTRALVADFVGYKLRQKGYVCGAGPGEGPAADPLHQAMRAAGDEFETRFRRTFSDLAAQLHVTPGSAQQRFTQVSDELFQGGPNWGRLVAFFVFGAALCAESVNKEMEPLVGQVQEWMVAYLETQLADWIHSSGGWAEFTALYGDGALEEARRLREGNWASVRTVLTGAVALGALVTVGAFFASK
Description: as §1

RS4;11 cells = experiment: Cellular efficacy in Bcl-2 dependent tumor cell line RS4;11; assay type: cell-based, human; conditions: Homo sapiens, RS4-11; 10% HS
H146 cells = experiment: Cellular efficacy in Bcl-XL dependent tumor cell line H146; assay type: cell-based; conditions: Homo sapiens, NCI-H146; 10% HS
[2] = 24 h, 1 oral dose of 100 mg/kg, read-out: Day 1 % Reduction vs. Vehicle
[3] = 96 h, 4 oral doses of 100 mg/kg, read-out: Day 4 % Reduction vs. Vehicle

Sequence of Bcl-XL (Q07817 whole entry): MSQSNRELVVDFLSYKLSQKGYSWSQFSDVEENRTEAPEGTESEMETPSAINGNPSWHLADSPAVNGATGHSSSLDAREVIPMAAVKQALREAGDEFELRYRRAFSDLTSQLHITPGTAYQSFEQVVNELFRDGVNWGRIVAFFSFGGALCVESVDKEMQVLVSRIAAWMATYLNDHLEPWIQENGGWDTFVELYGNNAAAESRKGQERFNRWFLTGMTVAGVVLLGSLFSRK

Row | Ki (Bcl-XL) [µM] | Ki (Mcl-1) [µM] | Ki (Bcl-w) [µM] | EC50 (RS4;11 cells) [µM] | EC50 (H146 cells) [µM] | SMILES | Day 1 Lymphocytes ([1]; 1 oral dose of 100 mg/kg) | Day 4 lymphocytes ([1]; 4 oral doses of 100 mg/kg) | inhibition in vivo at 100 mg/kg [1, 2] [%] | inhibition in vivo at 100 mg/kg [1, 3] [%]
1 | 0.016 | > 0.44 | 0.405 | 0.004 | 3.34 | CC1(C)CCC(CN2CCN(c3ccc(C(=O)NS(=O)(=O)c4ccc(NC[C@H]5CC[C@@](C)(O)CC5)c([N+](=O)[O-])c4)c(Oc4cnc5[nH]ccc5c4)c3)CC2)=C(c2ccc(Cl)cc2)C1 [Compound 8, 4-(4-{[2-(4-chlorophenyl)-4,4-dimethylcyclohex-1-en-1-yl]methyl}piperazin-1-yl)-N-[(4-{[(cis-4-hydroxy-4-methylcyclohexyl)methyl]amino}-3-nitrophenyl)sulfonyl]-2-(1H-pyrrolo[2,3-b]pyridin-5-yloxy)benzamide] | 0.92 ×10^6 | 1.02 ×10^6 | 85 | 84
2 | 0.016 | > 0.44 | 0.227 | 0.0025 | 3.76 | CC1(C)CCC(CN2CCN(c3ccc(C(=O)NS(=O)(=O)c4ccc(NC[C@H]5CC[C@](C)(O)CC5)c([N+](=O)[O-])c4)c(Oc4cnc5[nH]ccc5c4)c3)CC2)=C(c2ccc(Cl)cc2)C1 [Compound 9, 4-(4-{[2-(4-chlorophenyl)-4,4-dimethylcyclohex-1-en-1-yl]methyl}piperazin-1-yl)-N-[(4-{[(trans-4-hydroxy-4-methylcyclohexyl)methyl]amino}-3-nitrophenyl)sulfonyl]-2-(1H-pyrrolo[2,3-b]pyridin-5-yloxy)benzamide] | 0.75 ×10^6 | 0.88 ×10^6 | 88 | 86
3 | 0.009 | > 0.44 | 0.167 | 0.007 | 3.16 | CC1(C)CCC(CN2CCN(c3ccc(C(=O)NS(=O)(=O)c4cnc(OCC5(F)CCN(C6COC6)CC5)c(Cl)c4)c(Oc4cnc5[nH]ccc5c4)c3)CC2)=C(c2ccc(Cl)cc2)C1 [Compound 13, N-[(5-chloro-6-{[4-fluoro-1-(oxetan-3-yl)piperidin-4-yl]methoxy}pyridin-3-yl)sulfonyl]-4-(4-{[2-(4-chlorophenyl)-4,4-dimethylcyclohex-1-en-1-yl]methyl}piperazin-1-yl)-2-(1H-pyrrolo[2,3-b]pyridin-5-yloxy)benzamide] | 2.32 ×10^6 | 2.61 ×10^6 | 64 | 70

— patent publication US9872861B2, “Methods of treatment using selective Bcl-2 inhibitors” (AbbVie Inc., priority 2010, dated 2018)
